This data set is described as follows: MALDI-TOF screening of Ni^2+ dependent hydrolysis in a combinatorial peptide library. It is filed as physicochemical. The settings on record: CH3CO-Gly-Ala-Ser-X-His-Z-Lys-Phe-Leu-NH2 library, Ni^2+ 2 mM, pH 8.2, 10 mM Tris, score=24/tm. In a few lines: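 Peptide sublibraries CH3CO-Gly-Ala-Ser/Thr-X-His-Z-Lys-Phe-Leu-NH2 (1 mM total) incubated with 2 mM Ni^2+ in 10 mM Tris pH 8.2 at 37 °C and 45 °C. Hydrolysis products, plus loss of substrate signals, detected by MALDI-TOF at 2, 4, 6 and 8 h; residues X and Z scored and ranked.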

For Ac-GASPHTKFL-NH2 [SPHT], the “hydrolysis score from MALDI-TOF screening” value (“hydrolysis score” below) (37° C.) is 0 (a score of 0 if no trace of the product of hydrolysis was seen after 8 hours of incubation) and the “hydrolysis score” value (45° C.) is on record as 0 (a score of 0 if no trace of the product of hydrolysis was seen after 8 hours of incubation).
Ac-GASPHVKFL-NH2 [SPHV]: the “hydrolysis score” value (37° C.) is reported as 0 (a score of 0 if no trace of the product of hydrolysis was seen after 8 hours of incubation) and the “hydrolysis score” value (45° C.) was 0 (a score of 0 if no trace of the product of hydrolysis was seen after 8 hours of incubation).
As for Ac-GASPHWKFL-NH2 [SPHW], the “hydrolysis score” value runs as follows: (37° C.) 0 (a score of 0 if no trace of the product of hydrolysis was seen after 8 hours of incubation); (45° C.) 0 (a score of 0 if no trace of the product of hydrolysis was seen after 8 hours of incubation).
Take Ac-GASPHYKFL-NH2 [SPHY]: the “hydrolysis score” value is 0 (a score of 0 if no trace of the product of hydrolysis was seen after 8 hours of incubation) (37° C.) and 0 (a score of 0 if no trace of the product of hydrolysis was seen after 8 hours of incubation) (45° C.).
On to Ac-GASQHAKFL-NH2 [SQHA], for which the “hydrolysis score” value by setting is: (37° C.) 0 (a score of 0 if no trace of the product of hydrolysis was seen after 8 hours of incubation); (45° C.) 3 (a score of 3 for detection at 8 hours).
In the same order, the values of Ac-GASQHDKFL-NH2 [SQHD] are 0 (a score of 0 if no trace of the product of hydrolysis was seen after 8 hours of incubation) and 0 (a score of 0 if no trace of the product of hydrolysis was seen after 8 hours of incubation).
In the same order, the values of Ac-GASQHEKFL-NH2 [SQHE] are 0 (a score of 0 if no trace of the product of hydrolysis was seen after 8 hours of incubation) and 0 (a score of 0 if no trace of the product of hydrolysis was seen after 8 hours of incubation).
In the case of Ac-GASQHFKFL-NH2 [SQHF], the “hydrolysis score” value is recorded as 3 (a score of 3 for detection at 8 hours) (37° C.) and 4 (a score of 4 for detection at 6 hours) (45° C.).
In the case of Ac-GASQHGKFL-NH2 [SQHG], the “hydrolysis score” value (37° C.) was 0 (a score of 0 if no trace of the product of hydrolysis was seen after 8 hours of incubation) and the “hydrolysis score” value (45° C.) is recorded as 0 (a score of 0 if no trace of the product of hydrolysis was seen after 8 hours of incubation).
Regarding Ac-GASQHHKFL-NH2 [SQHH], the “hydrolysis score” value (37° C.) is 0 (a score of 0 if no trace of the product of hydrolysis was seen after 8 hours of incubation) and the “hydrolysis score” value (45° C.) was 0 (a score of 0 if no trace of the product of hydrolysis was seen after 8 hours of incubation).
As to Ac-GASQHIKFL-NH2 [SQHI], the “hydrolysis score” value (37° C.) is given as 6 (a score of 6 for detection at 4 hours) and the “hydrolysis score” value (45° C.) is given as 6 (a score of 6 for detection at 4 hours).
On to Ac-GASQHKKFL-NH2 [SQHK], for which the “hydrolysis score” value (37° C.) was 4 (a score of 4 for detection at 6 hours) and the “hydrolysis score” value (45° C.) is reported as 6 (a score of 6 for detection at 4 hours).
Take Ac-GASQHLKFL-NH2 [SQHL]: the “hydrolysis score” value by setting is: (37° C.) 6 (a score of 6 for detection at 4 hours); (45° C.) 6 (a score of 6 for detection at 4 hours).
Regarding Ac-GASQHMKFL-NH2 [SQHM], the “hydrolysis score” value is, setting by setting: (37° C.) 0 (a score of 0 if no trace of the product of hydrolysis was seen after 8 hours of incubation); (45° C.) 3 (a score of 3 for detection at 8 hours).
On to Ac-GASQHNKFL-NH2 [SQHN], for which the “hydrolysis score” value by setting is: (37° C.) 0 (a score of 0 if no trace of the product of hydrolysis was seen after 8 hours of incubation); (45° C.) 0 (a score of 0 if no trace of the product of hydrolysis was seen after 8 hours of incubation).
Consider Ac-GASQHPKFL-NH2 [SQHP], for which the “hydrolysis score” value is reported as 0 (a score of 0 if no trace of the product of hydrolysis was seen after 8 hours of incubation) (37° C.) and 0 (a score of 0 if no trace of the product of hydrolysis was seen after 8 hours of incubation) (45° C.).
In the case of Ac-GASQHQKFL-NH2 [SQHQ], the “hydrolysis score” value is on record as 0 (a score of 0 if no trace of the product of hydrolysis was seen after 8 hours of incubation) (37° C.) and 0 (a score of 0 if no trace of the product of hydrolysis was seen after 8 hours of incubation) (45° C.).
As to Ac-GASQHRKFL-NH2 [SQHR], the “hydrolysis score” value was 6 (a score of 6 for detection at 4 hours) (37° C.) and 6 (a score of 6 for detection at 4 hours) (45° C.).
With Ac-GASQHSKFL-NH2 [SQHS], the “hydrolysis score” value is 0 (a score of 0 if no trace of the product of hydrolysis was seen after 8 hours of incubation) (37° C.) and 0 (a score of 0 if no trace of the product of hydrolysis was seen after 8 hours of incubation) (45° C.).
On to Ac-GASQHTKFL-NH2 [SQHT], for which the “hydrolysis score” value was 0 (a score of 0 if no trace of the product of hydrolysis was seen after 8 hours of incubation) (37° C.) and 0 (a score of 0 if no trace of the product of hydrolysis was seen after 8 hours of incubation) (45° C.).
As for Ac-GASQHVKFL-NH2 [SQHV], the “hydrolysis score” value (37° C.) is listed as 0 (a score of 0 if no trace of the product of hydrolysis was seen after 8 hours of incubation) and the “hydrolysis score” value (45° C.) is given as 4 (a score of 4 for detection at 6 hours).
In the same order, the values of Ac-GASQHWKFL-NH2 [SQHW] are 6 (a score of 6 for detection at 4 hours) and 6 (a score of 6 for detection at 4 hours).
Consider Ac-GASQHYKFL-NH2 [SQHY], for which the “hydrolysis score” value runs as follows: (37° C.) 3 (a score of 3 for detection at 8 hours); (45° C.) 4 (a score of 4 for detection at 6 hours).
In the same order, the values of Ac-GASRHAKFL-NH2 [SRHA] are 3 (a score of 3 for detection at 8 hours) and 6 (a score of 6 for detection at 4 hours).
In the same order, the values of Ac-GASRHDKFL-NH2 [SRHD] are 0 (a score of 0 if no trace of the product of hydrolysis was seen after 8 hours of incubation) and 0 (a score of 0 if no trace of the product of hydrolysis was seen after 8 hours of incubation).
In the same order, the values of Ac-GASRHEKFL-NH2 [SRHE] are 0 (a score of 0 if no trace of the product of hydrolysis was seen after 8 hours of incubation) and 3 (a score of 3 for detection at 8 hours).
Turning to Ac-GASRHFKFL-NH2 [SRHF], the “hydrolysis score” value is 4 (a score of 4 for detection at 6 hours) (37° C.) and 4 (a score of 4 for detection at 6 hours) (45° C.).
Regarding Ac-GASRHGKFL-NH2 [SRHG], the “hydrolysis score” value reads like this: (37° C.) 3 (a score of 3 for detection at 8 hours); (45° C.) 6 (a score of 6 for detection at 4 hours).

The record behind these values is patent US8969516B2, “Method of hydrolysis of peptide bond” (priority 2006, dated 2015).
